Reference: patent US20260022143A1, “Cyclic Peptide Inhibitors of IL-23” (JANSSEN PHARMACEUTICA NV, priority 2022, published 2026)
Positions of bridges follow the written chain, without caps; N, C: chain ends. Non-standard residues stand in square brackets, D forms with d. Residues, ends and D or L forms follow the SMILES beside them. *: point of attachment. Me3N+(CH2)2O(CH2)2O(CH2)2CO = C[N+](C)(C)CCOCCOCCC(=O)*; Trp(7-Me) = Cc1cccc2c(C[C@H](N)C(=O)O)c[nH]c12; Hexanoyl(6-NMe3+) = C[N+](C)(C)CCCCCC(=O)*; dLys(Me3) = C[N+](C)(C)CCCC[C@@H](N)C(=O)O; 3Pal(5-Me) = Cc1cncc(C[C@H](N)C(=O)O)c1; 2Nal = N[C@@H](Cc1ccc2ccccc2c1)C(=O)O; 3Pal = N[C@@H](Cc1cccnc1)C(=O)O; Lys(Me) = CNCCCC[C@H](N)C(=O)O; Pen = CC(C)(S)[C@H](N)C(=O)O; Thp = NC1(C(=O)O)CCOCC1; Dap = NC[C@H](N)C(=O)O; X3 = C[N+](C)(C)CCCCC*; Me2NCH2CH2 = CN(C)CC*; Sar = CNCC(=O)O

Experiments:
[1] = Exposed Polar Surface Area (EPSA); format: physicochemical; conditions: SFC on Chirex 3014 column; sample 1 mM DMSO stock; read-out: EPSA
Outline: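 Polarity descriptor in Å² derived from retention time using 8 calibration standards re-run every 20 compounds. Duplicate injections of 1 mM DMSO stock; linear 5–60% modifier gradient (20 mM ammonium formate in MeOH) with CO2 at 4 mL/min, 35 °C, on a Chirex 3014 column.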

[2] = molecular target: T1, IL-23R (Homo sapiens, UniProt Q5VWK5); assay: IL23R Reporter Assay; format: cell-based; conditions: HEK293 cells containing IL-23R, IL-12RP1 and STAT-inducible firefly luciferase reporter; 10 ng/mL IL-23 (EC90); 5 h at 37° C.; read-out: IL23R Reporter Assay
T1 construct: host or cells: HEK293
T1 sequence (Q5VWK5 24-629): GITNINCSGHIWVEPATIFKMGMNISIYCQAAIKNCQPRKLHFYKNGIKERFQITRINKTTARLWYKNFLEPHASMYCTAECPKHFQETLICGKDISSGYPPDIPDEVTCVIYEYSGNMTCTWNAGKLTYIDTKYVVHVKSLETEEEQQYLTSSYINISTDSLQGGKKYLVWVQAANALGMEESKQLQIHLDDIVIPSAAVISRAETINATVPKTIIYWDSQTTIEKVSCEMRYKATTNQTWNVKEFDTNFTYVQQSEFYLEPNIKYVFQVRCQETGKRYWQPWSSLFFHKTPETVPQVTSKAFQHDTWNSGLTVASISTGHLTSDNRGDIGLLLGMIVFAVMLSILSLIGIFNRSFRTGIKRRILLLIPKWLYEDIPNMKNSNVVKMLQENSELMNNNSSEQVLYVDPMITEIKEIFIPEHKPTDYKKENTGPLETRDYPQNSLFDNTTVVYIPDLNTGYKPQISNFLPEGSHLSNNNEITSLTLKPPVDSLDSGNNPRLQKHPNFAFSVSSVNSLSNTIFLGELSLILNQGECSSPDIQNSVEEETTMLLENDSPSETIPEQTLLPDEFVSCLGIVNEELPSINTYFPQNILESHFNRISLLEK

| SMILES | EPSA [1] [A^2] | IC50 [2] [nM] |
| --- | --- | --- |
| CC(=O)NCCCC[C@@H]1NC(=O)[C@H](Cc2c[nH]c3c(C)cccc23)NC(=O)[C@H]([C@@H](C)O)NC(=O)[C@H](CC(N)=O)NC(=O)[C@@H](NC(=O)CCCCC[N+](C)(C)C)C(C)(C)SSC(C)(C)[C@@H](C(=O)N[C@@H](Cc2ccc(OCCN(C)C)cc2)C(=O)N[C@@H](Cc2ccc3ccccc3c2)C(=O)NC2(C(=O)N[C@@H](CNC(C)=O)C(=O)N[C@@H](CC(N)=O)C(=O)N[C@@H](Cc3cccnc3)C(=O)N(C)CC(N)=O)CCOCC2)NC1=O [compound 103] ({Hexanoyl(6-NMe3+)}-[Pen]NT[Trp(7-Me)]K(Ac)[Pen]Y(Me2NCH2CH2)[2Nal][Thp][Dap](Ac)N[3Pal][Sar]-NH2; disulfide 1-6 (inferred)) | 158 | 5.4 |
| CC(=O)N(C)CCCC[C@@H]1NC(=O)[C@H](Cc2c[nH]c3c(C)cccc23)NC(=O)[C@H]([C@@H](C)O)NC(=O)[C@H](CC(=O)N(C)C)NC(=O)[C@@H](NC(=O)CCOCCOCC[N+](C)(C)C)C(C)(C)SSC(C)(C)[C@@H](C(=O)N[C@@H](Cc2ccc(OCCCCC[N+](C)(C)C)cc2)C(=O)N[C@@H](Cc2ccc3ccccc3c2)C(=O)NC2(C(=O)N[C@@H](CCCCN(C)C(C)=O)C(=O)N[C@@H](CC(N)=O)C(=O)N[C@@H](Cc3cccnc3)C(=O)N(C)CC(N)=O)CCOCC2)NC1=O [compound 326, cPEG3aCO-Pen(3)-N(N(Me)2)-T-7MeW-K(NMeAc)-Pen(3)-TMAPF-2Nal-THP-K(NMeAc)-N-3Pya-Sar-CONH2] ({Me3N+(CH2)2O(CH2)2O(CH2)2CO}-[Pen]D(NMe2)T[Trp(7-Me)][Lys(Me)](Ac)[Pen]Y(X3)[2Nal][Thp][Lys(Me)](Ac)N[3Pal][Sar]-NH2; disulfide 1-6) | 157 | 0.85 |
| CC(=O)NCCCC[C@H](NC(=O)C1(NC(=O)[C@H](Cc2ccc3ccccc3c2)NC(=O)[C@H](Cc2ccc(OCCN)cc2)NC(=O)[C@H]2NC(=O)[C@H](CCCCN(C)C(C)=O)NC(=O)[C@H](Cc3c[nH]c4c(C)cccc34)NC(=O)[C@H]([C@@H](C)O)NC(=O)[C@H](CC(N)=O)NC(=O)[C@@H](NC(=O)C(COCCOCC[N+](C)(C)C)NC(C)=O)C(C)(C)SSC2(C)C)CCOCC1)C(=O)N[C@@H](CC(N)=O)C(=O)N[C@@H](Cc1cccnc1)C(=O)N(C)CC(N)=O (mixture of isomers) [compound 554, MeCO-APEG2Ser(RS)-Pen(3)-N-T-7MeW-K(Ac)-Pen(3)-AEF-2Nal-THP-K(Ac)-N-3Pya-Sar-CONH2] | 171 | 3 |
| CC(=O)NCCCC[C@@H]1NC(=O)[C@H](Cc2c[nH]c3c(C)cccc23)NC(=O)[C@H]([C@@H](C)O)NC(=O)[C@H](CC(N)=O)NC(=O)[C@@H](NC(=O)[C@@H](CCCC[N+](C)(C)C)NC(C)=O)C(C)(C)SSC(C)(C)[C@@H](C(=O)N[C@@H](Cc2ccc(OCCCCC[N+](C)(C)C)cc2)C(=O)N[C@@H](Cc2ccc3ccccc3c2)C(=O)NC2(C(=O)N[C@@H](CCC(=O)O)C(=O)N[C@@H](CC(N)=O)C(=O)N[C@@H](Cc3cncc(C)c3)C(=O)N(C)CC(N)=O)CCOCC2)NC1=O [compound 534, MeCO-k(Me)3-Pen(3)-N-T-7MeW-K(Ac)-Pen(3)-TMAPF-2Nal-THP-E-N-5MePyridinAla-Sar-CONH2] (Ac-[dLys(Me3)][Pen]NT[Trp(7-Me)]K(Ac)[Pen]Y(X3)[2Nal][Thp]EN[3Pal(5-Me)][Sar]-NH2; disulfide 2-7) | 172 | 2.1 |
